Results as given in patent publication US8802597B2, “Herbicidal pyrimidines” (E I du Pont de Nemours and Company, priority 2003, dated 2014).

Key:
Type in all cases: in vivo
[1] = system: duck salad (Heteranthera limosa); experiment: Test C flooded paddy test; conditions: Flood, scale 0 to 100
Protocol: (§1) At the same time, plants selected from these crop and weed species and also winter barley (Hordeum vulgare), blackgrass (Alopecurus myosuroides), canarygrass (Phalaris minor), chickweed (Stellaria media), downy brome (Bromus tectorum), green foxtail (Setaria viridis), Italian ryegrass (Lolium multiflorum), wheat (Triticum aestivum), wild oat (Avena fatua) and windgrass (Apera spica-venti) were treated with postemergence applications of some of the test chemicals formulated in the same manner. Plants ranged in height from 2 to 18 cm (1- to 4-leaf stage) for postemergence treatments. Plant species in the flooded paddy test consisted of rice (Oryza sativa), umbrella sedge (Cyperus difformis), duck salad (Heteranthera limosa) and barnyardgrass (Echinochloa crus-galli) grown to the 2-leaf stage for testing. Treated plants and controls were maintained in a greenhouse for 12 to 14 days, after which time all species were compared to controls and visually evaluated. Plant response ratings, summarized in Table C, are based on a scale of 0 to 100 where 0 is no effect and 100 is complete control. A dash (-) response means no test result.

[2] = system: umbrella sedge (Cyperus difformis); experiment: Test C flooded paddy test; conditions: Flood, scale 0 to 100
Protocol: as §1

rice (Oryza sativa) = experiment: Test C flooded paddy test; conditions: Flood, scale 0 to 100
Protocol: as §1

[3] = system: barnyardgrass (Echinochloa crus-galli); experiment: Test C flooded paddy test; conditions: Flood
Protocol: as §1

[4] = system: late watergrass (Echinochloa oryzicola); experiment: Test E flooded paddy water application; conditions: Flood, 21 days, scale 0 to 100 (0 no effect, 100 complete control)
Outline: (§2)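 Weeds sown in sterilized Tama silt loam (2.6% organic matter), greenhouse 29.5/26.7° C, 16-h photoperiod; at 2.0–2.5-leaf stage pots flooded to 3 cm and compound added to paddy water. Visual rating vs untreated controls after 21 days, 0 (no effect) to 100 (complete control).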

[5] = system: junglerice (Echinochloa colona); experiment: Test E flooded paddy water application; conditions: Flood, 21 days, scale 0 to 100 (0 no effect, 100 complete control)
Outline: as §2

[6] = system: water seeded rice seedlings (Oryza sativa cv. ‘Japonica-M202’); experiment: Test E flooded paddy water application; conditions: Flood, 21 days, scale 0 to 100 (0 no effect, 100 complete control)
Outline: as §2

[7] = system: bearded (brdd.) sprangletop (Leptochloa fusca ssp. fascicularis); experiment: Test E flooded paddy water application; conditions: Flood, 21 days, scale 0 to 100 (0 no effect, 100 complete control)
Outline: as §2

[8] = system: barnyardgrass (Echinochloa crus-galli); experiment: Test E flooded paddy water application; conditions: Flood, 21 days, scale 0 to 100 (0 no effect, 100 complete control)
Outline: as §2

[9] = system: ducksalad (Heteranthera limosa); experiment: Test E flooded paddy water application; conditions: Flood, 21 days, scale 0 to 100 (0 no effect, 100 complete control)
Outline: as §2

[10] = system: smallflower umbrella sedge (Cyperus difformis); experiment: Test E flooded paddy water application; conditions: Flood, 21 days, scale 0 to 100 (0 no effect, 100 complete control)
Outline: as §2

[11] = system: transplanted rice seedlings (Oryza sativa cv. ‘Japonica-M202’); experiment: Test E flooded paddy water application; conditions: Flood, 21 days, scale 0 to 100 (0 no effect, 100 complete control)
Outline: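 Response scored visually on a 0–100 scale (100 = complete control) at 21 days against untreated pots. Treatment was into paddy water 3 cm deep over silt loam, with plants at the 2.0–2.5-leaf stage, grown under 16-h light at 29.5/26.7 °C day/night.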

[12] = system: early watergrass (Echinochloa oryzoides); experiment: Test E flooded paddy water application; conditions: Flood, 21 days, scale 0 to 100 (0 no effect, 100 complete control)
Outline: as §2

[13] = system: rice flatsedge (Cyperus iria); experiment: Test E flooded paddy water application; conditions: Flood, 21 days, scale 0 to 100 (0 no effect, 100 complete control)
Outline: as §2

[14] = 500 g ai/ha, scale 0 to 100 (0 no effect, 100 complete control)

Structure (SMILES): CC(C)COC(=O)c1nc(C2CC2)nc(N)c1Br [Compound 17]
- Plant response rating, Ducksalad ([1]; 62 g ai/ha): 0
- Plant response rating, Ducksalad ([1]; 125 g ai/ha): 0
- Plant response rating, Ducksalad ([1]; 250 g ai/ha): 80
- Plant response rating, Ducksalad ([1]; 500 g ai/ha): 80
- Plant response rating, Sedge, Umbrella ([2]; 62 g ai/ha): 0
- Plant response rating, Sedge, Umbrella ([2]; 125 g ai/ha): 0
- Plant response rating, Sedge, Umbrella ([2]; 250 g ai/ha): 20
- Plant response rating, Sedge, Umbrella ([2]; 500 g ai/ha): 25
- Plant response rating, Rice (rice (Oryza sativa); 62 g ai/ha): 0
- Plant response rating, Rice (rice (Oryza sativa); 125 g ai/ha): 0
- Plant response rating, Rice (rice (Oryza sativa); 250 g ai/ha): 45
- Plant response rating, Rice (rice (Oryza sativa); 500 g ai/ha): 75
- Plant response rating, Barnyardgrass ([3]; 62 g ai/ha, scale 0 to 100): 0
- Plant response rating, Barnyardgrass ([3]; 125 g ai/ha, scale 0 to 100): 0
- Plant response rating, Barnyardgrass ([3]; 250 g ai/ha, scale 0 to 100): 0
- Plant response rating, Barnyardgrass [3, 14]: 50

Structure (SMILES): COC(=O)c1nc(C2CC2)nc(N=CN(C)C)c1Br [Compound 19]
- Plant response rating, Ducksalad ([1]; 62 g ai/ha): 20
- Plant response rating, Ducksalad ([1]; 125 g ai/ha): 40
- Plant response rating, Ducksalad ([1]; 250 g ai/ha): 60
- Plant response rating, Ducksalad ([1]; 500 g ai/ha): 60
- Plant response rating, Sedge, Umbrella ([2]; 62 g ai/ha): 20
- Plant response rating, Sedge, Umbrella ([2]; 125 g ai/ha): 50
- Plant response rating, Sedge, Umbrella ([2]; 250 g ai/ha): 50
- Plant response rating, Sedge, Umbrella ([2]; 500 g ai/ha): 50
- Plant response rating, Rice (rice (Oryza sativa); 62 g ai/ha): 0
- Plant response rating, Rice (rice (Oryza sativa); 125 g ai/ha): 0
- Plant response rating, Rice (rice (Oryza sativa); 250 g ai/ha): 10
- Plant response rating, Rice (rice (Oryza sativa); 500 g ai/ha): 20
- Plant response rating, Barnyardgrass ([3]; 62 g ai/ha, scale 0 to 100): 0
- Plant response rating, Barnyardgrass ([3]; 125 g ai/ha, scale 0 to 100): 0
- Plant response rating, Barnyardgrass ([3]; 250 g ai/ha, scale 0 to 100): 0
- Plant response rating, Barnyardgrass [3, 14]: 60

Structure (SMILES): Nc1nc(C2CC2)nc(C=O)c1Br [Compound 26]
- Plant response rating, Ducksalad ([1]; 62 g ai/ha): 40
- Plant response rating, Ducksalad ([1]; 125 g ai/ha): 40
- Plant response rating, Ducksalad ([1]; 250 g ai/ha): 40
- Plant response rating, Ducksalad ([1]; 500 g ai/ha): 40
- Plant response rating, Sedge, Umbrella ([2]; 62 g ai/ha): 0
- Plant response rating, Sedge, Umbrella ([2]; 125 g ai/ha): 0
- Plant response rating, Sedge, Umbrella ([2]; 250 g ai/ha): 20
- Plant response rating, Sedge, Umbrella ([2]; 500 g ai/ha): 20
- Plant response rating, Rice (rice (Oryza sativa); 62 g ai/ha): 0
- Plant response rating, Rice (rice (Oryza sativa); 125 g ai/ha): 0
- Plant response rating, Rice (rice (Oryza sativa); 250 g ai/ha): 20
- Plant response rating, Rice (rice (Oryza sativa); 500 g ai/ha): 25
- Plant response rating, Barnyardgrass ([3]; 62 g ai/ha, scale 0 to 100): 0
- Plant response rating, Barnyardgrass ([3]; 125 g ai/ha, scale 0 to 100): 0
- Plant response rating, Barnyardgrass ([3]; 250 g ai/ha, scale 0 to 100): 0
- Plant response rating, Barnyardgrass [3, 14]: 0

Structure (SMILES): CCOC(=O)c1nc(-c2ccc(I)cc2)nc(N)c1Cl [Compound 133]
- Watergrass, Late plant response rating ([4]; 64 g ai/ha): 0
- Watergrass, Late plant response rating ([4]; 125 g ai/ha): 0
- Watergrass, Late plant response rating ([4]; 250 g ai/ha): 0
- Plant response rating, Watergrass, Late ([4]; 16 g ai/ha): 0
- Plant response rating, Watergrass, Late ([4]; 32 g ai/ha): 0
- Junglerice plant response rating ([5]; 64 g ai/ha): 0
- Junglerice plant response rating ([5]; 125 g ai/ha): 0
- Junglerice plant response rating ([5]; 250 g ai/ha): 0
- Plant response rating, Junglerice ([5]; 16 g ai/ha): 0
- Plant response rating, Junglerice ([5]; 32 g ai/ha): 0
- Rice, Water Seeded plant response rating ([6]; 64 g ai/ha): 0
- Rice, Water Seeded plant response rating ([6]; 125 g ai/ha): 0
- Rice, Water Seeded plant response rating ([6]; 250 g ai/ha): 35
- Plant response rating, Rice, Water Seeded ([6]; 16 g ai/ha): 0
- Plant response rating, Rice, Water Seeded ([6]; 32 g ai/ha): 0
- Sprangletop, Brdd. plant response rating ([7]; 64 g ai/ha): 0
- Sprangletop, Brdd. plant response rating ([7]; 125 g ai/ha): 0
- Sprangletop, Brdd. plant response rating ([7]; 250 g ai/ha): 0
- Plant response rating, Sprangletop, Brdd. ([7]; 16 g ai/ha): 0
- Plant response rating, Sprangletop, Brdd. ([7]; 32 g ai/ha): 0
- Barnyardgrass plant response rating ([8]; 32 g ai/ha): 0
- Barnyardgrass plant response rating ([8]; 64 g ai/ha): 0
- Barnyardgrass plant response rating ([8]; 125 g ai/ha): 0
- Barnyardgrass plant response rating ([8]; 250 g ai/ha): 0
- Plant response rating, Barnyardgrass ([8]; 16 g ai/ha): 0
- Ducksalad plant response rating ([9]; 32 g ai/ha): 100
- Ducksalad plant response rating ([9]; 64 g ai/ha): 100
- Ducksalad plant response rating ([9]; 125 g ai/ha): 100
- Ducksalad plant response rating ([9]; 250 g ai/ha): 100
- Plant response rating, Ducksalad ([9]; 16 g ai/ha): 100
- Sedge, Umbrella plant response rating ([10]; 64 g ai/ha): 95
- Sedge, Umbrella plant response rating ([10]; 125 g ai/ha): 100
- Sedge, Umbrella plant response rating ([10]; 250 g ai/ha): 100
- Plant response rating, Sedge, Umbrella ([10]; 16 g ai/ha): 0
- Plant response rating, Sedge, Umbrella ([10]; 32 g ai/ha): 0
- Rice, Transplanted plant response rating ([11]; 64 g ai/ha): 0
- Rice, Transplanted plant response rating ([11]; 125 g ai/ha): 0
- Rice, Transplanted plant response rating ([11]; 250 g ai/ha): 0
- Plant response rating, Rice, Transplanted ([11]; 16 g ai/ha): 0
- Plant response rating, Rice, Transplanted ([11]; 32 g ai/ha): 0
- Watergrass, Early plant response rating ([12]; 64 g ai/ha): 0
- Watergrass, Early plant response rating ([12]; 125 g ai/ha): 0
- Watergrass, Early plant response rating ([12]; 250 g ai/ha): 0
- Plant response rating, Watergrass, Early ([12]; 16 g ai/ha): 0
- Plant response rating, Watergrass, Early ([12]; 32 g ai/ha): 0
- Flatsedge, Rice plant response rating ([13]; 64 g ai/ha): 95
- Flatsedge, Rice plant response rating ([13]; 125 g ai/ha): 95
- Flatsedge, Rice plant response rating ([13]; 250 g ai/ha): 100
- Plant response rating, Flatsedge, Rice ([13]; 16 g ai/ha): 30
- Plant response rating, Flatsedge, Rice ([13]; 32 g ai/ha): 65
